This assay deals with colon tumor 26. Put plainly: Anti-cancer effect in vivo, transplanted colon tumor 26 in mice. Details: species or system BALB/c male mouse. The following applies: cisplatin 1 mg/kg ipx 5, Day 11. The text has this: The tumors were excised and weighed.
Combine index (CI), CI=AB/(A×B). AB is the T/C of the combined effects of two drugs, A, B either is the T/C of the effect of one drug (when CI<1, these two drugs have combination).

Each structure is given as a SMILES string.

As for `N.N.[Cl][Pt][Cl]` [Cisplatin, cisplatin], the The inhibitive rate is 44% and the “tumor weight x ± s” value is reported as 1.39 ± 0.39 g.

Source of the values: patent US9328141B2, “Polypeptides for the treatment or prevention of cancer and uses thereof” (WUHAN KATYGEN PHARMACEUTICALS, INC., priority 2010, dated 2016).
